Measurements reported in patent US20230203043A1, “NOVEL IMIDAZOPYRAZINE DERIVATIVES” (Hoffmann-La Roche Inc., priority 2020, published 2023).
Counter-ions that a name gives are not always drawn.

Tested on: Acinetobacter baumannii ATCC17961
Test: Antimicrobial susceptibility testing: 90% growth inhibitory concentration (IC90) determination in Iso-Sensitest broth, OD600 growth
Format: cell-based
Conditions: Acinetobacter baumannii, ATCC17961, 16 h, strain ATCC 17961, OD600 growth over 16 h, read-out: A. baumannii ATCC 17961 IC90
Summary of the method: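 OD600 read every 20 min for 16 h at 35±2° C; inhibition taken in log phase to derive IC90. Twofold, 10-point dilutions (e.g. 50–0.097 μM final), inoculum ~5×10^(5) CFU/ml.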

`CCc1cc(Nc2nccn3c(-c4cn(CC#N)nc4C(F)(F)F)cnc23)ccc1C(=O)NCCNC(=O)[C@H]1C[C@H](N)C1` [Example 487, N-(2-((1r,3r)-3-aminocyclobutane-1-carboxamido)ethyl)-4-((3-(1-(cyanomethyl)-3-(trifluoromethyl)-1H-pyrazol-4-yl)imidazo[1,2-a]pyrazin-8-yl)amino)-2-ethylbenzamide formate] and `CCc1cc(Nc2nccn3c(-c4cn(CC#N)nc4C(F)(F)F)cnc23)ccc1C(=O)NCCNC(=O)[C@H]1CC[C@H](N)C1` [Example 491, N-(2-((1S,3S)-3-aminocyclopentane-1-carboxamido)ethyl)-4-((3-(1-(cyanomethyl)-3-(trifluoromethyl)-1H-pyrazol-4-yl)imidazo[1,2-a]pyrazin-8-yl)amino)-2-ethylbenzamide formate] are within 1.5-fold of each other in IC90: 0.171 µM for the first, 0.195 µM for the second.

`CCc1cc(Nc2nccn3c(-c4cn(CC(F)F)nc4C(F)(F)F)cnc23)ccc1C(=O)NCCNC(=O)[C@H]1C[C@H](N)C1` [Example 488, N-(2-((1r,3r)-3-aminocyclobutane-1-carboxamido)ethyl)-4-((3-(1-(2,2-difluoroethyl)-3-(trifluoromethyl)-1H-pyrazol-4-yl)imidazo[1,2-a]pyrazin-8-yl)amino)-2-ethylbenzamide formate] and `CCc1cc(Nc2nccn3c(-c4cn(CC(F)F)nc4C(F)(F)F)cnc23)ccc1C(=O)NCCNC(=O)[C@@H]1CC[C@@H](N)C1` [Example 490, N-(2-((1R,3R)-3-aminocyclopentane-1-carboxamido)ethyl)-4-((3-(1-(2,2-difluoroethyl)-3-(trifluoromethyl)-1H-pyrazol-4-yl)imidazo[1,2-a]pyrazin-8-yl)amino)-2-ethylbenzamide formate] are within 1.5-fold of each other in IC90: 0.147 µM for the first, 0.196 µM for the second.

`CCc1cc(Nc2nccn3c(-c4cn(CC(F)F)nc4C(F)(F)F)cnc23)ccc1C(=O)NCCNC(=O)N1CC[C@H](N)C1` [Example 489, (S)-3-amino-N-(2-(4-((3-(1-(2,2-difluoroethyl)-3-(trifluoromethyl)-1H-pyrazol-4-yl)imidazo[1,2-a]pyrazin-8-yl)amino)-2-ethylbenzamido)ethyl)pyrrolidine-1-carboxamide formate] and `CCc1cc(Nc2nccn3c(-c4cn(CC(F)F)nc4C(F)(F)F)cnc23)ccc1C(=O)NCCNC(=O)[C@H]1CC[C@H](N)C1` [Example 492, N-(2-((1S,3S)-3-aminocyclopentane-1-carboxamido)ethyl)-4-((3-(1-(2,2-difluoroethyl)-3-(trifluoromethyl)-1H-pyrazol-4-yl)imidazo[1,2-a]pyrazin-8-yl)amino)-2-ethylbenzamide formate] are within 1.5-fold of each other in IC90: 0.184 µM for the first, 0.2 µM for the second.

`CCc1cc(Nc2nccn3c(-c4cn(CC#N)nc4C(F)(F)F)cnc23)ccc1C(=O)NCCNC(=O)[C@H](C)N` [Example 493, (S)-N-(2-(2-aminopropanamido)ethyl)-4-((3-(1-(cyanomethyl)-3-(trifluoromethyl)-1H-pyrazol-4-yl)imidazo[1,2-a]pyrazin-8-yl)amino)-2-ethylbenzamide formate] and `CCc1cc(Nc2nccn3c(-c4cn(CC#N)nc4C(F)(F)F)cnc23)ccc1C(=O)NCCNC(=O)[C@@H]1CC[C@H](N)C1` [Example 494, N-(2-((1R,3S)-3-aminocyclopentane-1-carboxamido)ethyl)-4-((3-(1-(cyanomethyl)-3-(trifluoromethyl)-1H-pyrazol-4-yl)imidazo[1,2-a]pyrazin-8-yl)amino)-2-ethylbenzamide formate] are within 1.5-fold of each other in IC90: 0.129 µM for the first, 0.157 µM for the second.

With `CCc1cc(Nc2nccn3c(-c4cn(CC(F)F)nc4C(F)(F)F)cnc23)ccc1C(=O)NCCNC(=O)[C@H]1CC[C@@H](N)C1` [Example 495, N-(2-((1S,3R)-3-aminocyclopentane-1-carboxamido)ethyl)-4-((3-(1-(2,2-difluoroethyl)-3-(trifluoromethyl)-1H-pyrazol-4-yl)imidazo[1,2-a]pyrazin-8-yl)amino)-2-ethylbenzamide formate] the IC90 was 0.173 µM.
